Among the data in patent US8071586B2, “Heterocyclyl compounds” (Hoffmann-La Roche Inc., priority 2008, dated 2011) are IC50 values, retold here.

pIC50: −log10 of the molar value.

The target in this assay is T1, human chemokine receptor 2 isoform B (CCR2) (Homo sapiens, UniProt P41597).
T1 sequence (P41597 1-360 isoform P41597-2): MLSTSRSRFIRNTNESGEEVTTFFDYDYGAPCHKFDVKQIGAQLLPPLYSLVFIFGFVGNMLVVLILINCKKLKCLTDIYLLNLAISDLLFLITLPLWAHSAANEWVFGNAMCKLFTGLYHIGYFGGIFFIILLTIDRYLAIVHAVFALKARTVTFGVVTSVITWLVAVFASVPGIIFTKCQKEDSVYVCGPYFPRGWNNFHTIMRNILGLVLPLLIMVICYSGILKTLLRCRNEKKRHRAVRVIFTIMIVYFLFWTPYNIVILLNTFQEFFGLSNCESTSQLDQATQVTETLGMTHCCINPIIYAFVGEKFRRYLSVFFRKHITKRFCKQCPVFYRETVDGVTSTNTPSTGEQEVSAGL
Description: Calcium mobilization assay (FLIPR, MCP-1 stimulated CHOK1-CCR2B-A5 cells). Type of assay: cell-based. Conditions: Ca mobilisation assay, CCR2 antagonist activity, inhibition of MCP-1 induced calcium increase. How it is done: Calcium Mobilization Assay
CHOK1-CCR2B-A5 cells (from Euroscreen) stably overexpressing the human chemokine receptor 2 isoform B were cultured in Nutrient Hams F12 medium supplemented with 5% FBS, 100 U/ml penicillin, 100 μg/ml streptomycin, 400 μg/ml G418 and 5 μg/ml puromycin.
For the assay cells were grown overnight in 384-well black clear flat bottom polystyrene plates (Costar) at 37° C. at 5% CO2. After washing with DMEM, 20 mM Hepes, 2.5 mM probenecid, 0.1% BSA (DMEM assay buffer) cells were loaded with 4 μM Fluo-4 in the same DMEM assay buffer for 2 hours at 30° C. Excess dye was removed and cells were washed with DMEM assay buffer. 384-well compound plates were prepared with DMEM assay buffer/0.5% DMSO with or without various concentrations of test compounds. Usually compounds were tested for agonist and antagonist activity.
Test compounds were added to the assay plate and agonist activity was monitored as fluorescence for 80 seconds with a FLIPR (488 nm excitation; 510-570 nm emission; Molecular Devices). After 20-30 min. of incubation at 30° C., […] MCP-1 (R&D; Roche) was added and fluorescence was monitored again for 80 seconds. Increases in intracellular calcium are reported as maximum fluorescence after agonist exposure minus basal fluorescence before exposure. Antagonist activity is indicated as inhibitor concentration required for 50% inhibition of specific calcium increases.
As for `C[C@H]1C(=O)N(CCCN2CCC3(CC3)[C@H](O)C2)CCN1C(=S)Nc1ccc(Cl)c(Cl)c1` [Example 71, (S)-4-[3-((S)-4-Hydroxy-6-aza-spiro[2.5]oct-6-yl)-propyl]-2-methyl-3-oxo-piperazine-1-carbothioic acid (3,4-dichloro-phenyl)-amide], the pIC50 (usually −log10 of the IC50, conventionally taken in molar units) was 8.70.

With `C[C@H]1C(=O)N(CCCN2CCC3(CC3)[C@H](O)C2)CCN1C(=O)Nc1ccc(Cl)cc1` [Example 72, (S)-4-[3-((S)-4-Hydroxy-6-aza-spiro[2.5]oct-6-yl)-propyl]-2-methyl-3-oxo-piperazine-1-carboxylic acid (4-chloro-phenyl)-amide], the pIC50 is 8.10.

Consider `C[C@H]1C(=O)N(CCCN2CCC3(CC3)[C@H](O)C2)CCN1C(=O)Nc1cccc(F)c1` [Example 73, (S)-4-[3-((S)-4-Hydroxy-6-aza-spiro[2.5]oct-6-yl)-propyl]-2-methyl-3-oxo-piperazine-1-carboxylic acid (3-fluoro-phenyl)-amide], for which the pIC50 was 7.68.

For the molecule `C[C@H]1C(=O)N(CCCN2CCC3(CC3)[C@H](O)C2)CCN1C(=O)Nc1ccccc1` [Example 74, (S)-4-[3-((S)-4-Hydroxy-6-aza-spiro[2.5]oct-6-yl)-propyl]-2-methyl-3-oxo-piperazine-1-carboxylic acid phenylamide], the pIC50 was 7.19.

With `C[C@H]1C(=O)N(CCCN2CCC3(CC3)[C@H](O)C2)CCN1C(=O)Nc1ccc2ccccc2c1` [Example 75, (S)-4-[3-((S)-4-Hydroxy-6-aza-spiro[2.5]oct-6-yl)-propyl]-2-methyl-3-oxo-piperazine-1-carboxylic acid naphthalen-2-ylamide], the pIC50 was 8.52.

Consider `C[C@H]1C(=O)N(CCCN2CCC3(CC3)[C@H](O)C2)CCN1C(=O)Nc1ccc(-c2ccccc2)cc1` [Example 76, (S)-4-[3-((S)-4-Hydroxy-6-aza-spiro[2.5]oct-6-yl)-propyl]-2-methyl-3-oxo-piperazine-1-carboxylic acid biphenyl-4-ylamide], for which the negative-log IC50 (pIC50) is 8.52.

For the molecule `C[C@H]1C(=O)N(CCCN2CCC3(CC3)[C@H](O)C2)CCN1C(=O)NCc1ccc(Cl)cc1` [Example 77, (S)-4-[3-((S)-4-Hydroxy-6-aza-spiro[2.5]oct-6-yl)-propyl]-2-methyl-3-oxo-piperazine-1-carboxylic acid 4-chloro-benzylamide], the pIC50 is 6.96.

As for `C[C@H]1C(=O)N(CCCN2CCC3(CC3)[C@H](O)C2)CCN1C(=O)Nc1cccc(-c2ccccc2)c1` [Example 78, (S)-4-[3-((S)-4-Hydroxy-6-aza-spiro[2.5]oct-6-yl)-propyl]-2-methyl-3-oxo-piperazine-1-carboxylic acid biphenyl-3-ylamide], the pIC50 is 8.70.

`COC[C@H](CCN1CCC2(CC2)[C@H](O)C1)N1CCN(C(=O)Nc2ccc(F)c(Cl)c2)[C@@H](C)C1=O` [Example 79, (S)-4-[(S)-3-((S)-4-Hydroxy-6-aza-spiro[2.5]oct-6-yl)-1-methoxymethyl-propyl]-2-methyl-3-oxo-piperazine-1-carboxylic acid (3-chloro-4-fluoro-phenyl)-amide]: the pIC50 was 8.52.

With `COC[C@H](CCN1CCC2(CC2)[C@H](O)C1)N1CCN(C(=O)Nc2ccc(Cl)c(Cl)c2)[C@@H](C)C1=O` [Example 80, (S)-4-[(S)-3-((S)-4-Hydroxy-6-aza-spiro[2.5]oct-6-yl)-1-methoxymethyl-propyl]-2-methyl-3-oxo-piperazine-1-carboxylic acid (3,4-dichloro-phenyl)-amide], the pIC50 is 9.00.

In the case of `COC[C@H](CCN1CCCCC1)N1CCN(C(=O)Nc2ccc(Cl)c(Cl)c2)[C@@H](C)C1=O` [Example 81, (S)-4-((S)-1-Methoxymethyl-3-piperidin-1-yl-propyl)-2-methyl-3-oxo-piperazine-1-carboxylic acid (3,4-dichloro-phenyl)-amide], the pIC50 was 8.05.
